In US7049317B2, “CCR-3 receptor antagonists” (Syntex (U.S.A.) LLC, priority 2001, dated 2006):
pIC50: −log10 of the molar value.

What was measured:
CCR-3 receptor = molecular target: T1, CCR-3 receptor (Homo sapiens, UniProt P51677); assay: CCR-3 Receptor Binding Assay, inhibition of 125I eotaxin binding to CCR-3 L1.2 transfectant cells; settings: 1 hour at room temperature
T1 construct: expressed in transfected cells; host or cells: L1.2 cells (murine pre-B lymphoma line)
T1 sequence (P51677 1-355): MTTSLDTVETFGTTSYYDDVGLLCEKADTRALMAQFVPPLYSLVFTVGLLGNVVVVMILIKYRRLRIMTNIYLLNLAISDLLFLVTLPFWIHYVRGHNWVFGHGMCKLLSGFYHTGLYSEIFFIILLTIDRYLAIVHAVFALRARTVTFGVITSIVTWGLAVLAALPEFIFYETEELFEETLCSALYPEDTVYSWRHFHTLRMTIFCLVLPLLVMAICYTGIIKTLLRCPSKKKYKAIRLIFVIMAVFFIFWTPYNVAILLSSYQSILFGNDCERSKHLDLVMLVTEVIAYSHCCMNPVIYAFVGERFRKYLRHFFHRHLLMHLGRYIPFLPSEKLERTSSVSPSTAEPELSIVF
Method: The CCR-3 antagonistic activity of the compounds of the invention was determined by their ability to inhibit the binding of ^125I eotaxin to CCR-3 L1.2 transfectant cells (see Ponath, P. D. et al., J. Exp. Med., Vol. 183, 2437–2448, (1996)).
The assay was performed in Costar 96-well polypropylene round bottom plates. Test compounds were dissolved in DMSO and then diluted with binding buffer (50 mM HEPES, 1 mM CaCl2, 5 mM MgCl2, 0.5% bovine serum albumin (BSA), 0.02% sodium azide, pH 7.24) such that the final DMSO concentration was 2%. 25 μl of the test solution or only buffer with DMSO (control samples) was added to each well, followed by the addition of 25 μl of ^125I-eotaxin ([…]) (NEX314, New England Nuclear, Boston, Mass.) and 1.5×10^5 of the CCR-3 L1.2 transfected cells in 25 μl binding buffer. The final reaction volume was 75 μl.
After incubating the reaction mixture for 1 hour at room temperature, the reaction was terminated by filtering the reaction mixture through polyethylenimine treated Packard Unifilter GF/C filter plate (Packard, Chicago, Ill.). The filters were washed four times with ice cold wash buffer containing 10 mm HEPES and 0.5M sodium chloride (pH 7.2) and dried at 65° C. for approximately 10 minutes. 25 μl/well of Microscint-20® scintillation fluid (Packard) was added and the radioactivity retained on the filters was determined by using the Packard TopCount®

Row | SMILES | melting point [°C] | pIC50 (CCR-3 receptor)
1 | COc1cc(NC(=O)N[C@@H]2CCC[C@H]2NCCc2ccc(Cl)cc2)cc(OC)c1OC.Cl (racemic) | 97 to 101.5 | 
2 | CN(CCCc1ccc(Cl)cc1)[C@@H]1CCC[C@H]1NC(=O)c1ccc(S(C)(=O)=O)cc1.Cl (racemic) | 109 to 113 | 
3 | COc1cc(NC(=O)N[C@@H]2CCC[C@H]2N(C)CCc2ccc(Cl)cc2)cc(OC)c1OC.Cl (racemic) [Compound 6, (±)-trans-1-(2-{[2-(4-Chlorophenyl)ethyl]methylamino}cyclopentyl)-3-(3,4,5-trimethoxyphenyl)urea hydrochloride] | 97 to 105 | 5.27
4 | CN(CCc1ccc(Cl)cc1)[C@@H]1CCC[C@H]1NC(=O)c1ccc(S(C)(=O)=O)cc1.Cl (racemic) | 179 to 179.3 | 
5 | COc1ccc(-c2cnc(SCC(=O)N[C@@H]3CCC[C@H]3N(C)CCc3ccc(Cl)cc3)nc2)cc1OC.Cl (racemic) | 123.7 to 125.3 | 
6 | COc1ccc(-c2cnc(SCC(=O)N[C@@H]3CCC[C@H]3N(C)CCCc3ccc(Cl)cc3)nc2)cc1OC.Cl (racemic) [Compound 9, (±)-trans-N-(2-{[3-(4-Chlorophenyl)propyl]methylamino}-cyclopentyl)-2-[5-(3,4-dimethoxyphenyl)pyrimidin-2-ylsulfanyl]acetamide hydrochloride] | 91.5 to 98.5 | 5.25
7 | COc1cc(NC(=O)N[C@@H]2CCC[C@H]2NCCCc2ccc(Cl)cc2)cc(OC)c1OC.Cl (racemic) | 91.3 to 96 | 
8 | COc1ccc(-c2cnc(SCC(=O)N[C@@H]3CCC[C@H]3NCCCc3ccc(Cl)cc3)nc2)cc1OC.Cl (racemic) [Compound 1, (±)-trans-N-{2-[3-(4-Chlorophenyl)propylamino]cyclopentyl}-2-[5-(3,4-dimethoxyphenyl)pyrimidin-2-ylsulfanyl]acetamide hydrochloride] | 95.3 to 111.3 | 4.74
9 | CS(=O)(=O)c1ccc(C(=O)N[C@@H]2CCC[C@H]2NCCc2ccc(Cl)cc2)cc1.Cl (racemic) | 221.8 to 222.7 | 
10 | COc1ccc(-c2cnc(SCC(=O)N[C@@H]3CCC[C@H]3NCCc3ccc(Cl)cc3)nc2)cc1OC.Cl (racemic) | 181.3 to 185.6 | 
11 | CS(=O)(=O)c1ccc(C(=O)N[C@@H]2CCC[C@H]2NCCCc2ccc(Cl)cc2)cc1.Cl (racemic) [Compound 2, (±)-trans-N-{2-[3-(4-Chlorophenyl)propylamino]cyclopentyl}-4-methanesulfonylbenzamide hydrochloride] | 192.3 to 196.8 | 5.17
12 | COc1cc(NC(=O)N[C@@H]2CCC[C@H]2N(C)CCCc2ccc(Cl)cc2)cc(OC)c1OC.Cl (racemic) | 75 to 82 | 
